Experimental data reported in paper PMC9246869, “Allosteric inhibition of PPM1D serine/threonine phosphatase via an altered conformational state” (Nature Communications, 2022).
pIC50: −log10 of the molar value. “And” between values parts separate entries of the source, which are not always exact repeats. Equal values may be shown once.

How the values were obtained:
[1] = target: T1, PPM1D1–420 (Homo sapiens, UniProt O15297); assay: p38 MAPK enzymatic assay (LC/MS, dephosphorylation of T180); type: biochemical; conditions: for P38 Assay, signal relative to 0 nM GSK (=100): PPM1D1-420, individual runs, listed as GSK
T1 construct: PPM1D1–420 was PCR-amplified from the synthesized gene with BsaI sites; His(6)-SUMO (N, cleaved yes); made in house; host or cells: E. coli BL21 (DE3)
T1 sequence (O15297 1-420): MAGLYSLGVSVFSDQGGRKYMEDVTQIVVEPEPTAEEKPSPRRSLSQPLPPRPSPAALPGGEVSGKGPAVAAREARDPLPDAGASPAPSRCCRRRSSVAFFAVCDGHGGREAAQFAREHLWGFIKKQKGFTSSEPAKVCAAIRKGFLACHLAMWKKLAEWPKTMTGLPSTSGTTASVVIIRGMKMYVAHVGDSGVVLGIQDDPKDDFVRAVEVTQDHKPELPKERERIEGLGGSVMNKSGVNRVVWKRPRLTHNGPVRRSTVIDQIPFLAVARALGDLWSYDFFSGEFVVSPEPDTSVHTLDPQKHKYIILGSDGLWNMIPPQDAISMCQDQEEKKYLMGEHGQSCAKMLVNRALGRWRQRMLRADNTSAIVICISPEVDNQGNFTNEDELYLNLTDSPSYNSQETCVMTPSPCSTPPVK
Protocol: (§1) To generate the double phosphorylated form of p38 MAPK for the LC/MS enzymatic PPM1D assay, 20 µM p38 MAPK was incubated with 100 nM MKK6 in 50 mM HEPES pH 7.4, 10 mM ATP, 40 mM MgCl2, and 100 µM TCEP at RT for 2 h. The reaction mixture was diluted 2-fold with 20 mM HEPES pH 7.4, 300 mM NaCl, 100 µM TCEP, and 1 mM MgCl2 and passed over a Superdex 200 26/600 column equilibrated with 20 mM HEPES pH 7.4, 150 mM NaCl, 100 µM TCEP, and 1 mM MgCl2 to remove excess ATP and MKK6 from the phosphorylated p38 MAPK (p38PP) protein. The protein was concentrated and stored in aliquots for single time usage at −80 °C.
(§2) The enzymatic activity of the PPM1D constructs was measured by quantifying the dephosphorylation of the substrate protein p38PP by LC/MS. Assays were run in 384-well plates (Axygen; #P-384-120SQ-C) in a final volume of 80 µL per well. The buffer consisted of 20 mM HEPES, 20 mM NaCl, 20 mM MgCl2 and 0.1 mM TCEP, at a pH of 7.5. The reaction was initiated by addition of the p38PP substrate to a solution containing 10 nM PPM1D to a final concentration of 300 nM for p38PP. The plate was then incubated at room temperature and the reaction quenched after 15 min increments with formic acid to a final concentration of 6% (v/v) up to 120 min. For IC50 measurements, the GSK2830371 compound was pre-incubated with the PPM1D constructs in a 2% DMSO-containing buffer for 10 min prior to the addition of the substrate and the reactions were quenched after 2 h. In both experiments, BSA was added to a final concentration of 0.2 µM during the quench step as a carrier protein and injection control for the LC/MS. The plate was then sealed and spun down at 1500 × g for 1 min prior to LC/MS analysis. Plates were analyzed within the same day of the quench step.
(§3) Substrate and product detection was achieved by multiple-reaction monitoring (MRM) using a Waters Acquity UPLC chromatography system connected to an Xevo TQ-XS mass spectrometer (Waters, Milford, MA). Source parameters were set as follows: polarity ES+, capillary 2.0 kV, cone voltage, 50 V; collision energy, 5 V; cone gas flow, 200 L/h; collision gas flow, 0.16 mL/min; source temperature, 150 °C; desolvation temperature, 500 °C; and desolvation gas flow, 800 L/h. Analytes were separated using an Agilent PLRP-S Reversed-Phase column (5 µm; 2.1 × 50 mm, 300 Å Agilent Technologies, Santa Clara, CA) at 60 °C. Sample storage temperature was set to 15 °C. Mobile phases consisted of 0.1% (v/v) formic acid (Millipore EMSURE) in LC/MS grade water (JTBaker) and 0.1% v/v formic acid in acetonitrile (Honeywell). Initial column conditions were set to […]. Proteins were eluted using a 1.5 min gradient of 5–98% acetonitrile at 0.4 ml/min. MassLynx and TargetLynx software (Waters, version 4.2) were used for sample acquisition and data analysis, respectively. Analytes were quantified by integration of peak areas under the curve using the transitions 941.10 to 941.05 m/z for P38PP (substrate) and 939.10 to 939.09 m/z for P38P (product). Areas were normalized for instrumental variation by dividing by the BSA peak area (1209.23 to 1209.2 m/z transition) measured in the same well.

[2] = target: T2, PPM1DΔhinge (Homo sapiens, UniProt O15297, DEL155-163/G166S/M164G/T165G); assay: as above; type: biochemical; conditions: for P38 Assay, signal relative to 0 nM GSK (=100): PPM1DΔHinge, individual runs, listed as GSK
T2 construct: PPM1D1–154-GGS-167–420 (PPM1D∆hinge); His(6)-SUMO (N, cleaved yes); made in house; host or cells: E. coli BL21 (DE3)
T2 sequence (O15297 with tags, fused parts or gaps DEL155-163/M164G/T165G/G166S): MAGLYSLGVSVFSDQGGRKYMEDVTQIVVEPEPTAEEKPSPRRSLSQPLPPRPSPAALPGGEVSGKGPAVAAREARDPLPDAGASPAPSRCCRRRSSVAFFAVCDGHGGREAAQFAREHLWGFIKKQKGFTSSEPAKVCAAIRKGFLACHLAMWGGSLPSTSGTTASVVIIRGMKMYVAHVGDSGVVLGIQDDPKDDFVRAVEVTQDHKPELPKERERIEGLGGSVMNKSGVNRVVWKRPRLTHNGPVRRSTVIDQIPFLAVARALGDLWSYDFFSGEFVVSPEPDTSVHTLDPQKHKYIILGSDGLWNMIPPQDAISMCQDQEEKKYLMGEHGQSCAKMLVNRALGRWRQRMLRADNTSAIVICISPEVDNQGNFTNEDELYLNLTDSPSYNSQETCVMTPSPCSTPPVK
Protocol: as §1, §2, §3

In the case of `Cc1ncc(Cl)cc1NCc1ccc(C(=O)N[C@@H](CC2CCCC2)C(=O)NC2CC2)s1` [GSK2830371], the pIC50 ([1]; PPM1D1–420, full length p38 MAPK substrate, LC/MS) was roughly 8.22, the “P38 Assay, signal relative to 0 nM GSK (=100)” value ([1]; [GSK] 0.49 nM) was 93.1001 and 100 and 88.922 and the “P38 Assay, signal relative to 0 nM GSK (=100)” value ([1]; [GSK] 0.98 nM) was 86.1215 and 81.7339 and 63.3381. For the same molecule, the “P38 Assay, signal relative to 0 nM GSK (=100)” value ([1]; [GSK] 1.95 nM) was 86.7639 and 71.6152 and 63.7723, the “P38 Assay, signal relative to 0 nM GSK (=100)” value ([1]; [GSK] 3.9 nM) was 51.5439 and 51.2694 and 46.219 and the “P38 Assay, signal relative to 0 nM GSK (=100)” value ([1]; [GSK] 7.8 nM) was 29.2083 and 28.1523 and 24.0173. The “P38 Assay, signal relative to 0 nM GSK (=100)” value ([1]; [GSK] 15.6 nM) was 16.4584 and 13.8278 and 11.5309, the “P38 Assay, signal relative to 0 nM GSK (=100)” value ([1]; [GSK] 31.2 nM) was 11.2856 and 7.234 and 5.456 and the “P38 Assay, signal relative to 0 nM GSK (=100)” value ([1]; [GSK] 62.5 nM) was 6.81 and 5.822 and 3.842. The “P38 Assay, signal relative to 0 nM GSK (=100)” value ([1]; [GSK] 125 nM) was 6.3041 and 6.187 and 2.5614, the “P38 Assay, signal relative to 0 nM GSK (=100)” value ([1]; [GSK] 250 nM) was 4.442 and 3.236 and 2.029 and the “P38 Assay, signal relative to 0 nM GSK (=100)” value ([1]; [GSK] 500 nM) was 3.225 and 4.879 and 3.8956. The “increase of IC50 in p38 MAPK assay upon hinge deletion” value ([2]; PPM1DΔhinge versus PPM1D1–420) was 100 fold, the “P38 Assay, signal relative to 0 nM GSK (=100)” value ([2]; [GSK] 1.953 nM) was 100.358 and 104.09 and 99.8488 and the “P38 Assay, signal relative to 0 nM GSK (=100)” value ([2]; [GSK] 3.906 nM) was 98.4717 and 98.7741 and 94.5709. The “P38 Assay, signal relative to 0 nM GSK (=100)” value ([2]; [GSK] 7.813 nM) was 97.8741 and 98.6995 and 87.7716, the “P38 Assay, signal relative to 0 nM GSK (=100)” value ([2]; [GSK] 15.625 nM) was 91.5216 and 88.9322 and 63.2104 and the “P38 Assay, signal relative to 0 nM GSK (=100)” value ([2]; [GSK] 31.25 nM) was 84.0592 and 89.4059 and 56.2735. The “P38 Assay, signal relative to 0 nM GSK (=100)” value ([2]; [GSK] 62.5 nM) was 71.608 and 76.249 and 61.6546, the “P38 Assay, signal relative to 0 nM GSK (=100)” value ([2]; [GSK] 125 nM) was 62.6262 and 54.2715 and 52.5307 and the “P38 Assay, signal relative to 0 nM GSK (=100)” value ([2]; [GSK] 250 nM) was 49.6072 and 48.4313 and 45.7898. The “P38 Assay, signal relative to 0 nM GSK (=100)” value ([2]; [GSK] 500 nM) was 38.0355 and 40.9669 and 36.3652 and the “P38 Assay, signal relative to 0 nM GSK (=100)” value ([2]; [GSK] 1000 nM) was 32.2867 and 33.3807 and 27.8112.
